Test results as given in patent publication US20170008888A1 (KYORIN PHARMACEUTICAL CO., LTD., priority 2014, published 2017).
Read-outs that look alike come from different tables or passages of the source.

Key:
[1] = target: T1, ERK5 (Homo sapiens, UniProt Q13164); experiment: Probe-based (AX9989 acyl phosphate ATP probe) kinase profiling in Jurkat lysate: ERK5; assay type: binding; conditions: for IC50: Jurkat lysate
T1 construct: screened for activity against several kinases in Jurkat cells; endogenous in cells; host or cells: Jurkat cell lysate
T1 sequence (Q13164 whole entry): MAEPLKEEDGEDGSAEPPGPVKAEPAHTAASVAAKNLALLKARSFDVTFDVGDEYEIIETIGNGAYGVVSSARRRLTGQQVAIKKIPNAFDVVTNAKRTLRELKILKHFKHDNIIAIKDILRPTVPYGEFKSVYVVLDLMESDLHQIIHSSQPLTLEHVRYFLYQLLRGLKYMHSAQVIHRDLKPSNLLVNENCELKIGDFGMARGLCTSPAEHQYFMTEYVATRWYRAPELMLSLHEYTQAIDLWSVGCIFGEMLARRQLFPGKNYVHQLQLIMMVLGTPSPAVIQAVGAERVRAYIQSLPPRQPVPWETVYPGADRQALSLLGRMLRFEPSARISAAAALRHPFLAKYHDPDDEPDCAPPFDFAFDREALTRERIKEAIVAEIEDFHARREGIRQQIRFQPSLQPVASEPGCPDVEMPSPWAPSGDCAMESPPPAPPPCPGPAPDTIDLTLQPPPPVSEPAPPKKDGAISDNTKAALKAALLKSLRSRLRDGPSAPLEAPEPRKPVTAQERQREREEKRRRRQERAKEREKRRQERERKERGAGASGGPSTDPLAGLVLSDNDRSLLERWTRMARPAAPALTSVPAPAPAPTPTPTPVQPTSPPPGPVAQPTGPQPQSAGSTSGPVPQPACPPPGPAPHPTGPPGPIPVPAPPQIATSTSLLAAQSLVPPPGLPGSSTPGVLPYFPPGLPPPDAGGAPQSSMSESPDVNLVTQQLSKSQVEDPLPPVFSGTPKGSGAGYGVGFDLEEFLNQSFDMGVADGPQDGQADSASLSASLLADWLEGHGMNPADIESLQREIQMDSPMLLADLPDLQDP
Summary of the method: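 ERK5 IC50 values came from percent inhibition at the screening concentration, measured as loss of LC/MS signal of probe-labelled active-site peptides. Compound was added for 15 min at room temperature to Jurkat lysate (5 mg/ml, 20 mM MnCl2) before labelling with AX9989 ATP acyl phosphate probe at 5 μM.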

[2] = target: T2, AurA (Homo sapiens, UniProt O14965); experiment: Probe-based (AX9989) kinase profiling in Jurkat lysate: AurA; assay type: binding
T2 construct: screened for activity against several kinases in Jurkat cells; endogenous in cells; host or cells: Jurkat cell lysate
T2 sequence (O14965 1-403): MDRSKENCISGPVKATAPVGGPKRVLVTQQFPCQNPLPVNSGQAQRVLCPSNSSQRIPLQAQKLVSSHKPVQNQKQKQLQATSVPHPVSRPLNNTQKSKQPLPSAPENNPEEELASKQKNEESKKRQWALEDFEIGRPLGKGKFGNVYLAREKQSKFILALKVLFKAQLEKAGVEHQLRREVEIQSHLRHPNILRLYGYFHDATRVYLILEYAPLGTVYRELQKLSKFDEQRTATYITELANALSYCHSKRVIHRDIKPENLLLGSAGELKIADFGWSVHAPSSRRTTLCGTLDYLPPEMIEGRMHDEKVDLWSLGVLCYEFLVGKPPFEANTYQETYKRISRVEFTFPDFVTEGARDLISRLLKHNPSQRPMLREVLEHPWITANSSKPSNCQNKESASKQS
Summary of the method: (§1)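 Percent inhibition was derived from reduced LC/MS fragment intensities of probe-labeled peptides relative to compound-free controls. Before labeling with 5 μM AX9989, Mn2+-supplemented (20 mM) Jurkat lysate was exposed to compound for 15 min at room temperature.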

[3] = system: AurB or AurC; experiment: Probe-based (AX9989) kinase profiling in Jurkat lysate: AurB or AurC; assay type: binding
Summary of the method: as §1

[4] = target: T3, JAK1 (Homo sapiens, UniProt P23458); experiment: Probe-based (AX9989) kinase profiling in Jurkat lysate: JAK1; assay type: binding
T3 construct: screened for activity against several kinases in Jurkat cells; endogenous in cells; host or cells: Jurkat cell lysate
T3 sequence (P23458 whole entry): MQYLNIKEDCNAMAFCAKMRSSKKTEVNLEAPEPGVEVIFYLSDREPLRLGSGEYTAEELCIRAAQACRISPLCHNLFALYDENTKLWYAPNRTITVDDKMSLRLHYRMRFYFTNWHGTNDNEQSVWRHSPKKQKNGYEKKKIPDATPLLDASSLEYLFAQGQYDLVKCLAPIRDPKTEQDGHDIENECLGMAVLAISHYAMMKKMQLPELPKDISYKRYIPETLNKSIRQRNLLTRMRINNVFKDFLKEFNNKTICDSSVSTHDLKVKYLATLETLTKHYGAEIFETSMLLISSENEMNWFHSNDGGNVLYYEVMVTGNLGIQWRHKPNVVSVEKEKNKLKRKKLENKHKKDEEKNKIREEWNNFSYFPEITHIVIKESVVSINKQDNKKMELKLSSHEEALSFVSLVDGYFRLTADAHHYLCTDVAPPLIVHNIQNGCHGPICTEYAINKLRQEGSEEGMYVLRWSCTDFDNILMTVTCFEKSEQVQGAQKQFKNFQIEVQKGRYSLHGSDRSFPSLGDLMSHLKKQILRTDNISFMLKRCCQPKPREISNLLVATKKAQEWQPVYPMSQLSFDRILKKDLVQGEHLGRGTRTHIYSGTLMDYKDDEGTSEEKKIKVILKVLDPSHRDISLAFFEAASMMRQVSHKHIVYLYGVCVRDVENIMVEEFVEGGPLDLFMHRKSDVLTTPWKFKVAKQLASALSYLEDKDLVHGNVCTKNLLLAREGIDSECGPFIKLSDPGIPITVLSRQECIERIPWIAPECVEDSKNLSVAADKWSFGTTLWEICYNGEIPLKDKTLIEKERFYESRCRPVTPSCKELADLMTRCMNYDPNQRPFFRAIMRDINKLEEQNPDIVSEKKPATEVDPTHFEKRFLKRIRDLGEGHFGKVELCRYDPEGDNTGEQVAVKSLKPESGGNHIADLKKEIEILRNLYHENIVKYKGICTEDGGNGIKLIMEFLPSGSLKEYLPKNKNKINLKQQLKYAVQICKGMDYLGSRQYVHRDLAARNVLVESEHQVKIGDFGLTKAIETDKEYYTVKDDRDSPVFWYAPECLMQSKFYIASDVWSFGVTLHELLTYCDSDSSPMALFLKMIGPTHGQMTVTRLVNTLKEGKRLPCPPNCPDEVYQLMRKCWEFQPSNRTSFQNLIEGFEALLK
Summary of the method: as §1

[5] = system: AMPKa1 or AMPKa2; experiment: Probe-based (AX9989) kinase profiling in Jurkat lysate: AMPKa1 or AMPKa2; assay type: binding
Summary of the method: as §1

[6] = target: T4, TAO2 (Homo sapiens, UniProt Q9UL54); experiment: Probe-based (AX9989) kinase profiling in Jurkat lysate: TAO2; assay type: binding
T4 construct: screened for activity against several kinases in Jurkat cells; endogenous in cells; host or cells: Jurkat cell lysate
T4 sequence (Q9UL54 1-1235): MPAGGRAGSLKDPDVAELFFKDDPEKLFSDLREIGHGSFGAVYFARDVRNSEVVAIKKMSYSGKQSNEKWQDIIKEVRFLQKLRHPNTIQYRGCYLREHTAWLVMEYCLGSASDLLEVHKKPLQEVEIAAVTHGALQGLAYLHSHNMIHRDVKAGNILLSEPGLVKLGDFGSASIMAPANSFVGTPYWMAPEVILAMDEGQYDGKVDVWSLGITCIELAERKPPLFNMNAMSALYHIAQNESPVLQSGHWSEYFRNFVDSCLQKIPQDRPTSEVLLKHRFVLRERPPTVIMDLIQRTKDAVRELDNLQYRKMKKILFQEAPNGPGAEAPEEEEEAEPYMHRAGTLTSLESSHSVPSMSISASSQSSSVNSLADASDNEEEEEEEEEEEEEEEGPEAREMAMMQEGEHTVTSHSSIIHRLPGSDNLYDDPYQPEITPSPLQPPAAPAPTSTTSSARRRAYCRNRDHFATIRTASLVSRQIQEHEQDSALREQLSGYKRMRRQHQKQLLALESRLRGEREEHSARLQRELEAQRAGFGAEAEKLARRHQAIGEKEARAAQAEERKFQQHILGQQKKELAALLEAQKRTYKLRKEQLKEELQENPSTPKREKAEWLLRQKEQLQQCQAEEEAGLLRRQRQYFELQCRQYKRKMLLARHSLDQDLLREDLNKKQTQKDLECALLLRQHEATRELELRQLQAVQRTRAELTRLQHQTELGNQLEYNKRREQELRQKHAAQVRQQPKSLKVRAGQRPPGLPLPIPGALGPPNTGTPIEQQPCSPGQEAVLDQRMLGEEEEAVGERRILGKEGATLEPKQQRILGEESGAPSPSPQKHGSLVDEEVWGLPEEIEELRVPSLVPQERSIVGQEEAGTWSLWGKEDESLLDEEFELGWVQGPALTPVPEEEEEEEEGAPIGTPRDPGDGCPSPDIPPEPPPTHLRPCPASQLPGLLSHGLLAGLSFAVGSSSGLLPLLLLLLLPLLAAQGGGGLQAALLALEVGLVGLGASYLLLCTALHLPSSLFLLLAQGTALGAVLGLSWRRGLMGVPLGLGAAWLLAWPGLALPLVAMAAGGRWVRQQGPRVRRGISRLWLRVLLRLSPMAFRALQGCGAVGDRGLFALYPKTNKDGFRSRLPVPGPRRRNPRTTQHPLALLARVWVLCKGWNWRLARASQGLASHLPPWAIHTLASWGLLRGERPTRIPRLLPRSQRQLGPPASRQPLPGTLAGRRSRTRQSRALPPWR
Summary of the method: as §1

[7] = target: T5, ACK (Homo sapiens, UniProt Q07912); experiment: Probe-based (AX9989) kinase profiling in Jurkat lysate: ACK; assay type: binding
T5 construct: screened for activity against several kinases in Jurkat cells; endogenous in cells; host or cells: Jurkat cell lysate
T5 sequence (Q07912 whole entry): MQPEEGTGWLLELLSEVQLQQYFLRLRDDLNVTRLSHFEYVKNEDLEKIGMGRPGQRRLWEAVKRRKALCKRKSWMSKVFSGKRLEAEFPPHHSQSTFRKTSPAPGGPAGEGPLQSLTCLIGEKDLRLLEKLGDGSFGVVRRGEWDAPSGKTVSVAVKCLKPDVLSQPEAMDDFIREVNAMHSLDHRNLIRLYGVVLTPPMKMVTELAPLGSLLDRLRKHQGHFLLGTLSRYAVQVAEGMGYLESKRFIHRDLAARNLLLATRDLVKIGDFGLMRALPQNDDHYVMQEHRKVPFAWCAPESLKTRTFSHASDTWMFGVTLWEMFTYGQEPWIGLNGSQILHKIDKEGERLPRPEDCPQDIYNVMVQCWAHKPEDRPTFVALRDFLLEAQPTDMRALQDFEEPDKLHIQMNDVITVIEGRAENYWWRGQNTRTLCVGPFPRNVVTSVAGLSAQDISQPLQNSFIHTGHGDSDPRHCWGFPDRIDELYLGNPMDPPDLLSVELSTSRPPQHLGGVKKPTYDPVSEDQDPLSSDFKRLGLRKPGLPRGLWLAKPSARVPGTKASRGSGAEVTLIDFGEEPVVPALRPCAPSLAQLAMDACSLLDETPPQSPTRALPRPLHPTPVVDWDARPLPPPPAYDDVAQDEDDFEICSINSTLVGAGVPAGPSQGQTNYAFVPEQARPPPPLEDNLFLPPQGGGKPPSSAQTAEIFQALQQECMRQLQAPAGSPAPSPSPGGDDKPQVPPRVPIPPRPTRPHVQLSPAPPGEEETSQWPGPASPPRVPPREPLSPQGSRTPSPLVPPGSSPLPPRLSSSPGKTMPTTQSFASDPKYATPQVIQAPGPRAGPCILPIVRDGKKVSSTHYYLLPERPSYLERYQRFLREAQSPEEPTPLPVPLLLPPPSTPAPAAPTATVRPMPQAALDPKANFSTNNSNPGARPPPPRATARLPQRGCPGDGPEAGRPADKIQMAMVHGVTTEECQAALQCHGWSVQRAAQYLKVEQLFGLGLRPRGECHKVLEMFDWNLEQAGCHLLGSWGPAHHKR
Summary of the method: as §1

[8] = system: ABL or ARG; experiment: Probe-based (AX9989) kinase profiling in Jurkat lysate: ABL or ARG; assay type: binding
Summary of the method: as §1

[9] = system: human PBMCs; experiment: Human PBMC TNF-α response to endotoxin (ELISA); assay type: cell-based; conditions: 0.1 μg/ml LPS 16 h, read-out: EC50 for the inhibition of the human PBMC TNF-α response to endotoxin, ave. ± S.D.
Procedure: Human PBMCs (Astarte Biologics, Redmond, Wash.) were seeded at 2e6 cells/ml in RPMI 1640 containing 10% (v/v) charcoal-dextran treated, heat inactivated FBS (Omega Scientific, Tarzana, Calif.), 0.05 mM 2-Mercaptoethanol (Sigma-Aldrich, St. Louis, Mo.), and 1×Pen/Strep Amphotericin B (Lonza, Allendale, N.J.). Cells were pre-treated with test compounds (10 μM down by ⅕ in a 4-point serial dilution series) for 1 h at 37° C. in a humidified atmosphere at 5% CO2. Cells were then stimulated with 0.1 μg/ml lipopolysaccharide (LPS) from E. coli 0111:B4 (EMD Millipore, Billerica, Mass.) for 16 h at 37° C. in a humidified atmosphere at 5% CO2. Supernatant was collected and a 25-fold dilution was analyzed for TNF-α concentration using an ELISA kit from Life Technologies (Grand Island, N.Y.) according to the manufacturer's instructions. Absorbance at 450 nm was read using the Synergy 2 multi-detection microplate reader (BioTek Instruments, Winooski, Vt.).

[10] = calculated from percent inhibition of AX9989 labeling and the screening concentration
[11] = screening concentration 1.0 μM, read-out: Kinase inhibition % at indicated screening concentration: ERK5
[12] = screening concentration 1.0 μM, read-out: Kinase inhibition % at indicated screening concentration: AurA
[13] = screening concentration 1.0 μM, read-out: Kinase inhibition % at indicated screening concentration: JAK1
[14] = screening concentration 1.0 μM, read-out: Kinase inhibition % at indicated screening concentration: TAO2
[15] = screening concentration 1.0 μM, read-out: Kinase inhibition % at indicated screening concentration: ACK

IC50 [1, 10] [nM]	inhibition at 1 µM [1, 11] [%]	inhibition at 1 µM [2, 12] [%]	Kinase inhibition % at indicated screening concentration: AurB or AurC ([3]; screening concentration 1.0 μM)	inhibition at 1 µM [4, 13] [%]	Kinase inhibition % at indicated screening concentration: AMPKa1 or AMPKa2 ([5]; screening concentration 1.0 μM)	inhibition at 1 µM [6, 14] [%]	inhibition at 1 µM [7, 15] [%]	Kinase inhibition % at indicated screening concentration: ABL or ARG ([8]; screening concentration 1.0 μM)	Compound	EC50 [9] [nM]	further results
101 to 500	50 to 75	≤ 35	E (E is ≦35%)	≤ 35	E (E is ≦35%)	≤ 35	≤ 35	D (D is >35% to ≦50%)	CCOc1cc(C(=O)NCCN2CCOCC2)ccc1Nc1cc2c(cn1)N(C)C(=O)c1ccccc1N2C [Compound 5]	1750	
≤ 50									CCOc1cc(C(=O)N2CCC(N)C2)ccc1Nc1cc2c(cn1)N(C)C(=O)c1occc1N2C (stereo not drawn) [Compound 11]	2520	inhibition at 0.1 µM ([1]; screening concentration 0.1 μM, read-out: Kinase inhibition % at indicated screening concentration: ERK5): > 90%; inhibition at 0.1 µM ([2]; screening concentration 0.1 μM, read-out: Kinase inhibition % at indicated screening concentration: AurA): ≤ 35%; Kinase inhibition % at indicated screening concentration: AurB or AurC ([3]; screening concentration 0.1 μM): E (E is ≦35%); inhibition at 0.1 µM ([4]; screening concentration 0.1 μM, read-out: Kinase inhibition % at indicated screening concentration: JAK1): ≤ 35%; Kinase inhibition % at indicated screening concentration: AMPKa1 or AMPKa2 ([5]; screening concentration 0.1 μM): E (E is ≦35%); inhibition at 0.1 µM ([6]; screening concentration 0.1 μM, read-out: Kinase inhibition % at indicated screening concentration: TAO2): ≤ 35%; inhibition at 0.1 µM ([7]; screening concentration 0.1 μM, read-out: Kinase inhibition % at indicated screening concentration: ACK): ≤ 35%; Kinase inhibition % at indicated screening concentration: ABL or ARG ([8]; screening concentration 0.1 μM): E (E is ≦35%)
> 500	> 90	≤ 35	E (E is ≦35%)	≤ 35	E (E is ≦35%)	≤ 35	≤ 35	E (E is ≦35%)	COc1cccnc1Nc1cc2c(cn1)N(C)C(=O)c1ccccc1N2C [Compound 14]	2850	
									CCOc1cc(C(=O)N2CCOCC2)ccc1Nc1cc2c(cn1)N(C)C(=O)c1ccccc1S2 [Compound T82, 3-((2-ethoxy-4-(morpholine-4-carbonyl)phenyl)amino)-11-methylbenzo[f]pyrido[4,3-b][1,4]thiazepin-10(11H)-one]		IC50 ([1]; calculated from percent inhibition and screening concentration, AX9989 probe): 101 to 500 nM; inhibition at 1 µM ([1]; screening concentration 1 μM, read-out: ERK5 Inhibition % at indicated screening concentration): 50 to 75%; inhibition at 1 µM ([2]; screening concentration 1 μM, read-out: AurA Inhibition % at indicated screening concentration): ≤ 35%; AurB or AurC Inhibition % at indicated screening concentration ([3]; screening concentration 1 μM): E (E is ≦35%); inhibition at 1 µM ([4]; screening concentration 1 μM, read-out: JAK1 Inhibition % at indicated screening concentration): ≤ 35%; AMPKa1 or AMPKa2 Inhibition % at indicated screening concentration ([5]; screening concentration 1 μM): E (E is ≦35%); inhibition at 1 µM ([6]; screening concentration 1 μM, read-out: TAO2 Inhibition % at indicated screening concentration): ≤ 35%; inhibition at 1 µM ([7]; screening concentration 1 μM, read-out: ACK Inhibition % at indicated screening concentration): ≤ 35%; ABL or ARG Inhibition % at indicated screening concentration ([8]; screening concentration 1 μM): E (E is ≦35%)
